Measurements as given in patent publication US20140228440A1, “1-AMINO-ALKYLCYCLOHEXANE DERIVATIVES FOR THE TREATMENT OF INFLAMMATORY SKIN DISEASES” (MERZ PHARMA GmbH & CO. KGaA, priority 2008, published 2014).

Test system: Propionibacterium granulosum ATCC 11829
Experiment: MIC and MBC by the agar dilution method
Type: cell-based
Protocol: To assess the anti-microbial potency of Neramexane against acne relevant bacterias the minimal inhibitory concentration (MIC) and minimal bactericidal concentration (MBC) against the following bacterias is established: The MICs of the samples are determined using the agar dilution method based on DIN 58940. Petri dishes of 5.5 cm diameter are poured with 2.5 ml of freshly prepared Mueller-Hinton agar (Merck company, Cat-No 1.05437) or Wilkins-Chalgren-Agar (Oxoid company, Cat-No CM643), maintained in liquid form at 50° C., to which the sample dilutions at various concentrations have been added at 50.0 vol.-%. To prepare the starting sample dilutions, a 12.5%, 3.12% suspension of the respective sample solution is prepared with Aqua purificata. From these stock-solutions, further dilutions are prepared with Aqua purificata. All test compounds are adjusted to pH 5.5. For test product no. 1, separate dilutions adjusted to pH 6.0 and pH 7.4 are also prepared. For inoculation, 1 μl of the respective germ suspension is placed on the centre of each agar plate. After drying, inoculated plates are incubated at 36.0±2.0° C. The basis for the length of incubation period is the respective growth control cultivated in parallel. The test microbe suspension is prepared by inoculating a few individual colonies of the respective bacteria into sterile saline solution until a turbidity corresponding to the McFarland standard 1.0 (approximately 10^8 cfu/ml) is reached. After that, the test microbe suspensions are further diluted 1:10 with saline solution and the microbial counts (see Table 21) are determined by the surface spread method using a spiral plater. The agar plates are incubated under the conditions given in Table 22 and subsequently evaluated. The MIC-values as given represent the lowest concentration of the active substance at which there is no macroscopically visible growth. Minimal, barely visible growth or few small individual colonies are evaluated as inhibition. [table] All negative tests of the determination of the minimal bactericial concentration are the basis of verification of remaining germs, the inoculated agar segments are cut and put in Mueller-Hinton-Bouillon (germ 1) or Wilkins-Chalgren-Bouillon (germs 2-4). After an adequate incubation period at 36.0±2.0° C. (as judged from a control without test compound), the tests are checked manually on microbial growth (=turbidity) and the minimal bactericidal concentration is determined. MBC indicates the concentration without marked turbidity. Grown germs are checked for identity to rule out unspecific contaminations. The following results are summarized and tabulated: • a) Results of the Minimal Inhibitory Concentration (MIC)* • b) Results of the Minimal Bactericidal Concentration (MBC) *The MIC is the concentration without macroscopical growth. Scarcely apparent, minimum growth or few single colonies are not considered. The controls must have a respectively good developed growth. There must be no growth on the agar plates for the sterile control. The growth of bacteria is indicated for the duplicate plates by a +(i.e., growth) or a −(i.e., no growth), +− indicates weak growth on both plates or growth on one plate and no growth on the other plate. All bacteria show appropriate growth on the respective control plate not containing any test compound. No influence of the used diluent (Aqua purifacata) was observed. No contamination is observed on the control-plates.

[1] = final concentration 0.08 %, pH 5.5
[2] = final concentration 0.08 %, pH 6.0
[3] = final concentration 0.08 %, pH 7.4
[4] = final concentration 0.16 %, pH 5.5
[5] = final concentration 0.16 %, pH 6.0
[6] = final concentration 0.16 %, pH 7.4
[7] = final concentration 0.31 %, pH 5.5
[8] = final concentration 0.31 %, pH 6.0
[9] = final concentration 0.31 %, pH 7.4
[10] = final concentration 0.63 %, pH 5.5
[11] = final concentration 0.63 %, pH 6.0
[12] = final concentration 0.63 %, pH 7.4
[13] = final concentration 1.56 %, pH 5.5
[14] = final concentration 1.56 %, pH 6.0
[15] = final concentration 1.56 %, pH 7.4
[16] = final concentration 2.50 %, pH 5.5
[17] = final concentration 2.50 %, pH 6.0
[18] = final concentration 2.50 %, pH 7.4
[19] = final concentration 3.13 %, pH 5.5
[20] = final concentration 3.13 %, pH 6.0
[21] = final concentration 3.13 %, pH 7.4
[22] = final concentration 6.25 %, pH 5.5
[23] = final concentration 6.25 %, pH 6.0
[24] = final concentration 6.25 %, pH 7.4

## CC1(C)CC(C)(C)CC(C)(N)C1.CS(=O)(=O)O [Neramexane mesylate]
Final concentration 0.01 %, pH 5.5
  growth of bacteria on duplicate plates (MIC determination): + +
Final concentration 0.01 %, pH 6.0
  growth of bacteria on duplicate plates (MIC determination): + +
Final concentration 0.01 %, pH 7.4
  growth of bacteria on duplicate plates (MIC determination): + +
Final concentration 0.04 %, pH 5.5
  growth of bacteria on duplicate plates (MIC determination): + +
Final concentration 0.04 %, pH 6.0
  growth of bacteria on duplicate plates (MIC determination): + −
Final concentration 0.04 %, pH 7.4
  growth of bacteria on duplicate plates (MIC determination): + −
[1]
  growth of bacteria (MBC determination): + +
  growth of bacteria on duplicate plates (MIC determination): − −
[2]
  growth of bacteria (MBC determination): + +
  growth of bacteria on duplicate plates (MIC determination): − −
[3]
  growth of bacteria (MBC determination): + +
  growth of bacteria on duplicate plates (MIC determination): − −
[4]
  growth of bacteria (MBC determination): + +
  growth of bacteria on duplicate plates (MIC determination): − −
[5]
  growth of bacteria (MBC determination): + +
  growth of bacteria on duplicate plates (MIC determination): − −
[6]
  growth of bacteria (MBC determination): + +
  growth of bacteria on duplicate plates (MIC determination): − −
[7]
  growth of bacteria (MBC determination): + +
  growth of bacteria on duplicate plates (MIC determination): − −
[8]
  growth of bacteria (MBC determination): − −
  growth of bacteria on duplicate plates (MIC determination): − −
[9]
  growth of bacteria (MBC determination): + +
  growth of bacteria on duplicate plates (MIC determination): − −
[10]
  growth of bacteria (MBC determination): − −
  growth of bacteria on duplicate plates (MIC determination): − −
[11]
  growth of bacteria (MBC determination): − −
  growth of bacteria on duplicate plates (MIC determination): − −
[12]
  growth of bacteria (MBC determination): + +
  growth of bacteria on duplicate plates (MIC determination): − −
[13]
  growth of bacteria (MBC determination): − −
  growth of bacteria on duplicate plates (MIC determination): − −
[14]
  growth of bacteria (MBC determination): − −
  growth of bacteria on duplicate plates (MIC determination): − −
[15]
  growth of bacteria (MBC determination): − −
  growth of bacteria on duplicate plates (MIC determination): − −
[16]
  growth of bacteria (MBC determination): − −
  growth of bacteria on duplicate plates (MIC determination): − −
[17]
  growth of bacteria (MBC determination): − −
  growth of bacteria on duplicate plates (MIC determination): − −
[18]
  growth of bacteria (MBC determination): − −
  growth of bacteria on duplicate plates (MIC determination): − −
[19]
  growth of bacteria (MBC determination): − −
  growth of bacteria on duplicate plates (MIC determination): − −
[20]
  growth of bacteria (MBC determination): − −
  growth of bacteria on duplicate plates (MIC determination): − −
[21]
  growth of bacteria (MBC determination): − −
  growth of bacteria on duplicate plates (MIC determination): − −
[22]
  growth of bacteria (MBC determination): − −
  growth of bacteria on duplicate plates (MIC determination): − −
[23]
  growth of bacteria (MBC determination): − −
  growth of bacteria on duplicate plates (MIC determination): − −
[24]
  growth of bacteria (MBC determination): − −
  growth of bacteria on duplicate plates (MIC determination): − −
pH 5.5
  MBC: 0.63%
  MIC: 0.08%
pH 6.0
  MBC: 0.31%
  MIC: 0.08%
pH 7.4
  MBC: 1.56%
  MIC: 0.08%
